Test results as given in publication PMC4633044, “Quorum Sensing Peptides Selectively Penetrate the Blood-Brain Barrier” (PLoS ONE, 2015).

Legend:
[1] = tested on: mouse brain (blood-brain barrier); conditions: in vivo; for Kin / Kin (text): iv
[2] = tested on: mouse brain capillaries / parenchyma; conditions: in vivo, iv
[3] = tested on: mouse brain (blood-brain barrier); conditions: in vivo
[4] = 0, 30, 120 min
[5] = mouse, in vivo, iv
[6] = tested on: blood-brain barrier
[7] = tested on: mouse brain (blood-brain barrier); conditions: general value for the positive control; cited from earlier work
Text: To evaluate these transport results, we compared them with the net clearances of oth ...

Substance | Brain distribution volume, Vg [1] [µL/g] | Kin [1] [µL/g/min] | Kin (text) [1] | Capillary fraction [2] [%] | Capillary fraction, first animal (Fig 3) [2] [%] | Capillary fraction, second animal (Fig 3) [2] [%] | Parenchyma fraction, first animal (Fig 3) [2] [%] | Parenchyma fraction, second animal (Fig 3) [2] [%] | Parenchymal fraction [2] [%] | kout [3] [min⁻¹] | kout (text) [3] | half-life in human plasma [4] [h] | Tissue distribution (in words) [5] | BBB influx classification [6] | clearance as % of the plasma flow to the brain [7]
GLWEDLLYNINRYAHYIT [BIP-2, bacteriocin-inducing peptide 2] | 18.22 ± 1.43 | 2.68 ± 0.66 | 2.68 µL/g/min | 23.1 | 23.14 | 23.04 | 76.86 | 76.96 | 76.9 | -0.06 ± 0.02 | -0.06 ± 0.02 | 5.345 | strongly accumulated in the liver | low influx | 
SYPGWSW [PhrCACET1] | 54.90 ± 5.75 | 20.87 ± 7.97 | 20.87 µL/g/min | 15.1 | 13.97 | 16.20 | 86.03 | 83.80 | 84.9 | -0.02 ± 0.04 | -0.02 ± 0.03 |  |  | very high influx | 
dermorphin [reference compound] | 23.05 ± 1.18 | 5.26 ± 0.93 | 5.26 μl/(gxmin) | 37.0 |  |  |  |  | 63.0 | -0.11 ± 0.02 |  |  | mainly distributed in the duodenum, followed by the liver | low influx | about 0.05%
